Like-named read-outs stand apart in the source and are kept apart here.
Assays:
Test in all cases: biochemical
Design in all cases: Eurofins KinaseProfiler full panel at Km ATP, residual kinase activity (%) relative to DMSO
TLK1(h) = biological target: T1, TLK1(h) (Homo sapiens, UniProt Q9UKI8)
T1 sequence (Q9UKI8 1-766): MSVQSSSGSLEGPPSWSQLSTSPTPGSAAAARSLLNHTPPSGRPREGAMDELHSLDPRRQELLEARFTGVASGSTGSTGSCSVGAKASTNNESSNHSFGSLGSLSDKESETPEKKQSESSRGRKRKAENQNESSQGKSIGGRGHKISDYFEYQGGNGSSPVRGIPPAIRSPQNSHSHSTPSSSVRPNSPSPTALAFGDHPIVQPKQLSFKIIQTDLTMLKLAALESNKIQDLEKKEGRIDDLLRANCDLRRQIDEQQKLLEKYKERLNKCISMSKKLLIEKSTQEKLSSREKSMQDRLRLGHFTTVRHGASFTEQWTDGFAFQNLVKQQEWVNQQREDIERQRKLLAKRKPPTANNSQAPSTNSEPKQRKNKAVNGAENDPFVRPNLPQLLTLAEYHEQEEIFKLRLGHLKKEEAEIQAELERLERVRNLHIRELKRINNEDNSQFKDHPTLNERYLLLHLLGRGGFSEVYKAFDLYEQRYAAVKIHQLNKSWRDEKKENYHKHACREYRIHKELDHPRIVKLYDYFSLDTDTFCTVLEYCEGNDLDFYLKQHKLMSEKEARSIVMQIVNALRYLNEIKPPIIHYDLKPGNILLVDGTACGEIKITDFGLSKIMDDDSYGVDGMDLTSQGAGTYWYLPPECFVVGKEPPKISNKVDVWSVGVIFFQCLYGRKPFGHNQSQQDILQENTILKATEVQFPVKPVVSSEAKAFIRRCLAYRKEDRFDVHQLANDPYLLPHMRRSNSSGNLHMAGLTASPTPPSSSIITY
In short: (§1)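 Two 10 µM single-concentration screens were run: a competition-binding screen, in which DNA-tagged kinase bound to immobilized ligands was quantified by qPCR, and a radiometric activity panel at Km ATP. Each is expressed as residual kinase activity (%).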

OSR1(h) = biological target: T2, OSR1(h) (Homo sapiens, UniProt O95747)
T2 construct: gene OXSR1
T2 sequence (O95747 whole entry): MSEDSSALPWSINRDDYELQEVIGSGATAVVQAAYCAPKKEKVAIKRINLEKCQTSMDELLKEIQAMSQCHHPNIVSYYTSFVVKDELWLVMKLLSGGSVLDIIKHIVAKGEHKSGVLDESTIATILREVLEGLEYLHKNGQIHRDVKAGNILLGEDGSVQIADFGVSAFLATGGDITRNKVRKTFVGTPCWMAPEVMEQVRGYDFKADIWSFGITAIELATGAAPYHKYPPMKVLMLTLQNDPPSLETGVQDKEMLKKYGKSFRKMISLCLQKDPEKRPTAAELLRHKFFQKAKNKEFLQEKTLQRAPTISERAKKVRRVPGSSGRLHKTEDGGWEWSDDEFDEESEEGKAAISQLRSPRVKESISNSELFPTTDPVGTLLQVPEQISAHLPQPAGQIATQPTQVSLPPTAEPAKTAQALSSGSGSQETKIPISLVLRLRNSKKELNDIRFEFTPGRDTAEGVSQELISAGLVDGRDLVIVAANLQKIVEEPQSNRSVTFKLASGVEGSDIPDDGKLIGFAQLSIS
In short: as §1

MAP4K4(h) = MAP4K4(h) (Homo sapiens, UniProt O95819)
MAP4K4(h), sequence (O95819 whole entry): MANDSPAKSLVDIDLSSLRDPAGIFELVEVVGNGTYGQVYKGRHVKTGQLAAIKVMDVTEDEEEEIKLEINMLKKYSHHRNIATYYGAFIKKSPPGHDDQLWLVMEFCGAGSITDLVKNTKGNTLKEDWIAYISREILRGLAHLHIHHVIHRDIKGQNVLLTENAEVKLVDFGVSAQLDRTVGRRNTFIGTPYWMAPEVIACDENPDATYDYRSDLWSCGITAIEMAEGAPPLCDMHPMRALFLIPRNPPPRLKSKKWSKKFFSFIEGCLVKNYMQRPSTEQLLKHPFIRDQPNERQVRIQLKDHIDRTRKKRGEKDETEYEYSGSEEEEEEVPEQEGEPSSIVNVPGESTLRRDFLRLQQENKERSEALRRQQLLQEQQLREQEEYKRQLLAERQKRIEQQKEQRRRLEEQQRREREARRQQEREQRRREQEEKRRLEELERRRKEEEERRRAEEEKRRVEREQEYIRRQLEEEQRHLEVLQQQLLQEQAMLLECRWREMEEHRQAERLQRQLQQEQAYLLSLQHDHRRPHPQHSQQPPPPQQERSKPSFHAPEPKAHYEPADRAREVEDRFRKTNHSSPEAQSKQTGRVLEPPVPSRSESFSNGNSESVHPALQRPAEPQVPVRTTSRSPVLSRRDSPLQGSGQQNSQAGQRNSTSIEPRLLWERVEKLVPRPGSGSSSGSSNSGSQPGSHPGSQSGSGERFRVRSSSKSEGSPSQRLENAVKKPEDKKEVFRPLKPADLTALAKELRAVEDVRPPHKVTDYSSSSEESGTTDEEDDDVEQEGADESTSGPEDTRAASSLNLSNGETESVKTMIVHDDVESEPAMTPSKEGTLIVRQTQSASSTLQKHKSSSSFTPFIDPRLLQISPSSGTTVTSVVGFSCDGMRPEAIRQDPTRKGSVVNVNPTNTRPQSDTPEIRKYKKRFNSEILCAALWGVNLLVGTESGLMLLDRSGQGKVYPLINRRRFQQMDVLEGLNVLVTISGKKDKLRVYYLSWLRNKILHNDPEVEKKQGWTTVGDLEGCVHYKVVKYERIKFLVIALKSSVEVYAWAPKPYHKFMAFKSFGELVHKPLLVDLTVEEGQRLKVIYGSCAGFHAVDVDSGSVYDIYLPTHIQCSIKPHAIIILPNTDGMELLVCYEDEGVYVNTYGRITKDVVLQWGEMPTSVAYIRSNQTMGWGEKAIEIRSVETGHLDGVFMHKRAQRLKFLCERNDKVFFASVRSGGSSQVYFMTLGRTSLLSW
In short: as §1

EphB2(h) = biological target: T3, EphB2(h) (Homo sapiens, UniProt P29323)
T3 sequence (P29323 1-1055): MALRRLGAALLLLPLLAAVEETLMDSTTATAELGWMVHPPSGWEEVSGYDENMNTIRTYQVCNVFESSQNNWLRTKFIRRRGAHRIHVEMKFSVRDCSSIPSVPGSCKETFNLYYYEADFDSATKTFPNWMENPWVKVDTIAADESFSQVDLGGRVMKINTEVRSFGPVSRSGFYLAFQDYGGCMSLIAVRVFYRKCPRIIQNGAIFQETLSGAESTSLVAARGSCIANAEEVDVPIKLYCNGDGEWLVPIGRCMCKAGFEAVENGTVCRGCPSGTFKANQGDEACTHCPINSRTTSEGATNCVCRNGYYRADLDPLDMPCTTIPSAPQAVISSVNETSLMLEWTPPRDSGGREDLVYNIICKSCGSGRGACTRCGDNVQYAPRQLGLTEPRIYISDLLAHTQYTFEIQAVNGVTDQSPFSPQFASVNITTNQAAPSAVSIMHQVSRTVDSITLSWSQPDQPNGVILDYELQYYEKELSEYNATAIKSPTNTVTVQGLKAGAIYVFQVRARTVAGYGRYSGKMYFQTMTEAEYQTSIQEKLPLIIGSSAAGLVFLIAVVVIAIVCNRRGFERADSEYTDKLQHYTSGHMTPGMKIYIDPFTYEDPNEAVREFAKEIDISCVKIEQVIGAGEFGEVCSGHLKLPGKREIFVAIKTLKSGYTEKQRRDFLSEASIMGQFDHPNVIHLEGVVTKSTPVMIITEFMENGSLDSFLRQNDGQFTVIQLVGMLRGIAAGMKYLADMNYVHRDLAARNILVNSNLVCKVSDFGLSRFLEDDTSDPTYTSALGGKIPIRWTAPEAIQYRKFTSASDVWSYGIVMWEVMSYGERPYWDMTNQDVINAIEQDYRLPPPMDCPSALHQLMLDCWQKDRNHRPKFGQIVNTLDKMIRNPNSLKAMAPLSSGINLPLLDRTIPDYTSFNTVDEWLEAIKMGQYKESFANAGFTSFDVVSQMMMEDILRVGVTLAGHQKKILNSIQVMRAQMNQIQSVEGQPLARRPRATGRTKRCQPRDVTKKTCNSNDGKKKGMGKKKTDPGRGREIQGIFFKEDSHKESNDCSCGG
In short: as §1

[1] = read-out: Residual activity (%) Spautin-1 5aa
[2] = read-out: Residual activity (%) 5as
[3] = read-out: Residual activity (%) 5at
[4] = read-out: Residual activity (%) 5ay

**Q.** With `Fc1ccc(CNc2ncnc3ccc(F)cc23)cc1` [5aa, 6-Fluoro-N-(4-fluorobenzyl)-4-Quinazolinamine] as the compound, how does the remaining activity at 10 µM (TLK1(h); [1]) read?
**A.** 112%

**Q.** What about the remaining activity at 10 µM (OSR1(h); [1]) of the same compound?
**A.** 100%

**Q.** What about the remaining activity at 10 µM (MAP4K4(h); [1]) of the same compound?
**A.** 75%

**Q.** And the remaining activity at 10 µM (EphB2(h); [1])?
**A.** 96%

**Q.** What does the source list for `Fc1ccc(CCNc2ncnc3ccc(F)cc23)cc1` [5as, 6-Fluoro-N-[2-(4-Fluorophenyl)Ethyl]-4-Quinazolinamine]?
**A.** remaining activity at 10 µM (TLK1(h); [2]): 112%; remaining activity at 10 µM (OSR1(h); [2]): 95%; remaining activity at 10 µM (MAP4K4(h); [2]): 75%; remaining activity at 10 µM (EphB2(h); [2]): 82%

**Q.** With `Fc1ccc2ncnc(NCCc3ccc(Cl)cc3)c2c1` [5at, N-[2-(4-Chlorophenyl)Ethyl]-6-Fluoro-4-Quinazolinamine] as the compound, how does the remaining activity at 10 µM (TLK1(h); [3]) read?
**A.** 97%

**Q.** What about the remaining activity at 10 µM (OSR1(h); [3]) of the same compound?
**A.** 108%

**Q.** And the remaining activity at 10 µM (MAP4K4(h); [3])?
**A.** 92%

**Q.** And the remaining activity at 10 µM (EphB2(h); [3])?
**A.** 93%

**Q.** What does the source list for `COc1ccc2ncnc(Nc3cccc(F)c3)c2c1` [5ay, N-(3-Fluorophenyl)-6-Methoxy-4-Quinazolinamine]?
**A.** remaining activity at 10 µM (TLK1(h); [4]): 107%; remaining activity at 10 µM (OSR1(h); [4]): 107%; remaining activity at 10 µM (MAP4K4(h); [4]): 73%; remaining activity at 10 µM (EphB2(h); [4]): 97%
